This note sets out measurements from patent publication US12403088B2, “Ophthalmic compositions and methods for reducing oxidative damage to an eye lens” (University of Louisville Research Foundation, Inc., priority 2015, dated 2025).

For the assay, the system named is excised porcine lenses. Nature of the assay: Protein oxidation (OxyBlot) in excised porcine lenses cultured under hyperoxic conditions mimicking post-vitrectomy oxygen levels. The format is cell-based. As to the method:
To assess the ability of the antioxidant compositions including non-reducing sugars to reduce oxidative damage to an eye lens of a subject, trehalose, a non-reducing disaccharide, was applied to lenses being cultured under hyperoxic (high oxygen) conditions that mimic post-vitrectomy intravitreal oxygen levels. Briefly, six excised porcine lenses were cultured in M199 media with 4% porcine serum at 37° C. for 1 week to acclimate to culture conditions. Then, 3 lenses were exposed to media with 7.5% trehalose while three control lenses remained untreated. At regular intervals, incubated lenses were examined under a dissecting microscope against a background of black gridlines. The oxygen concentration was controlled to mimic post-vitrectomy conditions. After 10 days, each lens was analyzed for protein oxidation using the OxBlot Oxidized Protein Detection Kit (Chemicon, International, Billerica, MA) to quantify the ability of the gel application method to protect the lens.
The method described above was used to compare the effect of a subject trehalose composition freely dispersed in the tissue culture media (FIG. 1, first bar) to a biogel composition that was described by Tezel et al. in WO2014081969A1 (“Compositions and methods for reducing oxidative damage”) and which includes trehalose within a polymer gel. […]

Turning to `OC[C@H]1O[C@H](O[C@H]2O[C@H](CO)[C@@H](O)[C@H](O)[C@H]2O)[C@H](O)[C@@H](O)[C@@H]1O` [trehalose, α,α-1,1-Trehalose], the “amount of protein oxidation in the lens (in words)” value (administration of trehalose to the eye lens, ex vivo, FIG. 1) is “reduced an amount of protein oxidation in the lens”. For the same compound, where the note is “trehalose composition freely dispersed in tissue culture media (7.5% trehalose), hyperoxic culture, 10 days, FIG. 1 bar 1”, the “reduction in protein oxidation levels to” value is “about 20%”.
